Literature values in patent US20080103122A1, “PHARMACEUTICAL COMBINATIONS FOR LIPID MANAGEMENT AND IN THE TREATMENT OF ATHEROSCLEROSIS AND HEPATIC STEATOSIS” (Schering Corporation, priority 2006, published 2008).

Tested on: atherosclerotic plaques
Details: mice; Zaiss et al., Circulation 100 (18 Suppl. I): 255 (1999)

Compound: Cc1cc(C)c2c3ccccc3n(Cc3ccc([C@@H](C(=O)N[C@@H](CO)c4ccccc4)C4CCCC4)cc3)c2n1 [implitiapide, 2,2-(S)-cyclopentyl-2-{[4-(2,4-dimethyl-alpha-carbolin-9-yl)methyl]phenyl}acetic acid-(R)-phenyl-glycinol-amide]
- formation of atherosclerotic plaques: prevents the formation of atherosclerotic plaques
